# Measurements: ChEMBL document CHEMBL3714750, “Aryl sulfonamides” (2008)
# Target: T1, C-C chemokine receptor type 9 (Homo sapiens, UniProt P51686)
# T1 sequence (P51686 whole entry): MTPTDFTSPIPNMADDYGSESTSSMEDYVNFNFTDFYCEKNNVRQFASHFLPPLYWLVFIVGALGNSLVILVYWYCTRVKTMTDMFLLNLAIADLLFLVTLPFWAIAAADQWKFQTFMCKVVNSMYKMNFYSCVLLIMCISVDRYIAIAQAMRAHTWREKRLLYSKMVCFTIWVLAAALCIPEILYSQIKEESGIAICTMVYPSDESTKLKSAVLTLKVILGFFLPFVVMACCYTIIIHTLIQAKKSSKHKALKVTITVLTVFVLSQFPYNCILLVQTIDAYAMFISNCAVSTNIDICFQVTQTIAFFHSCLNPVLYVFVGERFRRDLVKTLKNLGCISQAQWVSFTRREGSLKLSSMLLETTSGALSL
# Assay: Antagonist activity against CCR9 in human MOLT4 cells assessed as inhibition of human recombinant TECK-induced calcium response pre-treated before TECK stimulation by Flou-4-AM dye based FLIPR assay
# Format: functional, cell-based, MOLT-4
row,Structure (SMILES),IC50 [nM]
1,O=C(c1ccncc1)c1cc(Cl)ccc1NS(=O)(=O)c1ccc(C(F)(F)F)cc1,> 1000
2,CC(=O)c1ccc(S(=O)(=O)Nc2ccc(Cl)cc2C(=O)c2ccnc(C)c2)cc1,> 1000
3,CC(C)(C)c1ccc(S(=O)(=O)Nc2ccc(Br)cc2C(=O)c2ccncc2)cc1,< 1000
4,CC(C)(C)c1ccc(S(=O)(=O)Nc2ccc(Cl)cc2C(=O)c2ccc(N3CCOCC3)nc2)cc1,> 1000
5,C[C@@H]1CN(c2ccc(S(=O)(=O)Nc3ccc(Cl)cc3C(=O)c3ccncc3)cc2)C[C@H](C)O1,< 1000
6,CC(C)(C)c1ccc(S(=O)(=O)Nc2ccc(S(=O)(=O)N3CCCC3)cc2C(=O)c2ccncc2)cc1,> 1000
7,CC(C)Oc1ccc(S(=O)(=O)Nc2ccc(Br)cc2C(=O)c2ccncc2)cc1,< 1000
8,CC(C)(C)c1ccc(S(=O)(=O)Nc2ccc(Cl)cc2C(=O)c2cc[nH]n2)cc1,< 1000
9,Cc1ncccc1C(=O)c1cc(Cl)ccc1NS(=O)(=O)c1ccc(C(C)(C)C)cc1,< 1000
10,COc1ccc(S(=O)(=O)Nc2ccc(Cl)cc2C(=O)c2nccn2C)cc1,> 1000
11,CC(C)(C)c1ccc(S(=O)(=O)Nc2ccc(Cl)cc2C(=O)c2ccnc(S(C)(=O)=O)c2)cc1,< 1000
12,CC(C)(C)c1ccc(S(=O)(=O)Nc2cc(F)c(F)cc2C(=O)c2ccncc2)cc1,< 1000
13,Cc1ccc(C(=O)c2cc(Cl)ccc2NS(=O)(=O)c2ccc(N3C[C@@H](C)O[C@@H](C)C3)c(F)c2)cn1,< 1000
14,Cc1cccc(C(=O)c2cc(Cl)ccc2NS(=O)(=O)c2ccc(-c3cnco3)cc2)n1,< 1000
15,Cc1cccc(C(=O)c2cc(Cl)ccc2NS(=O)(=O)c2ccc(C(C)(C)c3ncco3)cc2)n1,< 1000
16,CC(C)(C)c1ccc(S(=O)(=O)Nc2ccc(Cl)cc2C(=O)c2ccnc(Cl)c2)cc1,< 1000
17,Cc1ncccc1C(=O)c1cc(Cl)ccc1NS(=O)(=O)c1ccc(OC(C)C)cc1,< 1000
18,Cc1ccc(C(=O)c2cc(Cl)ccc2NS(=O)(=O)c2ccc(C(C)(C)c3ncco3)cc2)c[n+]1[O-],< 1000
19,Cc1ccc(C(=O)c2cc(Cl)ccc2NS(=O)(=O)c2ccc(N3CCOCC3)c(F)c2)cn1,< 1000

row,Structure (SMILES),IC50 [nM]
1,CC(C)(C)c1ccc(S(=O)(=O)Nc2ccc(S(=O)(=O)N3CCCC3)cc2C(=O)c2cc[n+]([O-])cc2)cc1,> 1000
2,CC(=O)c1ccc(S(=O)(=O)Nc2ccc(Cl)cc2C(=O)c2ccc(C)nc2)cc1,> 1000
3,COc1ccc(S(=O)(=O)Nc2ccc(Cl)cc2C(=O)NCCc2ccccc2)cc1,< 1000
4,Cc1ccc(C(=O)c2cc(Cl)ccc2NS(=O)(=O)c2ccc(C(C)(C)c3cocn3)cc2)cn1,< 1000
5,Cc1ncccc1C(=O)c1cc(Cl)ccc1NS(=O)(=O)c1ccc(S(C)(=O)=O)cc1,< 1000
6,CC(C)(C)c1ccc(S(=O)(=O)Nc2ccc(Cl)cc2C(=O)c2ccc(Cl)nc2)cc1,< 1000
7,CSc1ccc(C(=O)c2cc(Cl)ccc2NS(=O)(=O)c2ccc(C(C)(C)C)cc2)cn1,< 1000
8,O=C(c1ccncc1)c1cc(Cl)ccc1NS(=O)(=O)c1ccc(-c2ccoc2)cc1,< 1000
9,Cc1ccc(C(=O)c2cc(Cl)ccc2NS(=O)(=O)c2ccc(-c3ocnc3C)cc2)cn1,< 1000
10,CC(C)(C)OC(=O)n1c(-c2ccc(S(=O)(=O)Nc3ccc(Cl)cc3C(=O)c3ccncc3)cc2)cc2ccccc21,> 1000
11,Cc1ccc(C(=O)c2cc(Cl)ccc2NS(=O)(=O)c2ccc(OC(F)(F)F)cc2)cn1,< 1000
12,O=C(c1ccncc1)c1cc(Cl)ccc1NS(=O)(=O)c1ccc(-c2nccs2)cc1,> 1000
13,O=C(c1ccncc1)c1cc(Cl)ccc1NS(=O)(=O)c1ccc(N2CCOCC2)c(F)c1,< 1000
14,O=C(c1ccncc1)c1cc(Cl)ccc1NS(=O)(=O)c1ccc(-c2csnn2)cc1,< 1000
15,Cc1cc(C(=O)c2cc(Cl)ccc2NS(=O)(=O)c2ccc(C(C)(C)C)cc2)ccn1,< 1000
16,Cc1cc(C(=O)c2cc(Cl)ccc2NS(=O)(=O)c2ccc(OC(C)C)cc2)ccn1,< 1000
17,O=C(c1cccnc1)c1cc(Cl)ccc1NS(=O)(=O)c1ccc(OC(F)(F)F)cc1,< 1000
18,CC(C)(c1ccc(S(=O)(=O)Nc2ccc(Cl)cc2C(=O)c2cc[n+]([O-])cc2)cc1)c1ncco1,< 1000
19,O=C(c1ccncc1)c1cc(Cl)ccc1NS(=O)(=O)c1ccc(-c2ncco2)cc1,< 1000

row,Structure (SMILES),IC50 [nM]
1,Cc1nnc(-c2cccc(S(=O)(=O)Nc3ccc(Cl)cc3C(=O)c3ccncc3)c2)o1,> 1000
2,CN(C)C(=O)CCc1ccc(S(=O)(=O)Nc2ccc(Cl)cc2C(=O)c2ccncc2)cc1,> 1000
3,CC(C)(C)OC(=O)n1cccc1-c1ccc(S(=O)(=O)Nc2ccc(Cl)cc2C(=O)c2ccncc2)cc1,> 1000
4,CC(C)(C)c1ccc(S(=O)(=O)Nc2ccc(Cl)cc2C(=O)c2ccnc(C#N)c2)cc1,< 1000
5,Cc1cc(C(=O)c2cc(Cl)ccc2NS(=O)(=O)c2ccc(OC(F)(F)F)cc2)ccn1,< 1000
6,CC(C)(c1ccc(S(=O)(=O)Nc2ccc(Cl)cc2C(=O)c2ccnc(Cl)c2)cc1)c1ncco1,< 1000
7,CC(C)(C)c1ccc(S(=O)(=O)Nc2ccc(F)c(F)c2C(=O)c2cccnc2)cc1,< 1000
8,COc1ccc(S(=O)(=O)Nc2ccc(Cl)cc2C(=O)N2CCCC(Cc3ccccc3)C2)cc1 (stereo not given),> 1000
9,Cc1ccc(C(=O)c2cc(Cl)ccc2NS(=O)(=O)c2ccc(-c3cnco3)cc2)cn1,< 1000
10,CC(=O)c1ccc(S(=O)(=O)Nc2ccc(Cl)cc2C(=O)c2ccncc2)cc1,> 1000
11,COC(=O)CCc1ccc(S(=O)(=O)Nc2ccc(Cl)cc2C(=O)c2cccnc2)cc1,< 1000
12,Cn1cc(C(=O)c2cc(Cl)ccc2NS(=O)(=O)c2ccc(C(C)(C)C)cc2)nn1,< 1000
13,Cc1nnc(-c2ccc(S(=O)(=O)Nc3ccc(Cl)cc3C(=O)c3ccccn3)cc2)o1,> 1000
14,COc1ccc(S(=O)(=O)Nc2ccc(Br)cc2C(=O)c2ccncc2)cc1,> 1000
15,O=C(c1ccncc1)c1cc(Cl)ccc1NS(=O)(=O)c1ccc(-c2cnco2)cc1,< 1000
16,CC(C)(C)c1ccc(S(=O)(=O)Nc2cc(Cl)ccc2C(=O)c2ccncc2)cc1,< 1000
17,O=C(c1ccncc1)c1cc(Cl)ccc1NS(=O)(=O)c1ccc(-c2cc3ccccc3[nH]2)cc1,> 1000
18,O=C(c1ccncc1)c1cc(Cl)ccc1NS(=O)(=O)c1ccc(N2CCN(CC(F)(F)F)CC2)cc1,> 1000

# Next, values leading:
row,IC50 [nM],Structure (SMILES)
1,< 1000,CC1(c2ccc(S(=O)(=O)Nc3ccc(Cl)cc3C(=O)c3cc[n+]([O-])cc3)cc2)CCOCC1
2,< 1000,CC(C)(C)c1ccc(S(=O)(=O)Nc2ccc(Cl)cc2C(=O)c2cccnc2)cc1
3,< 1000,O=C(c1ccncc1)c1cc(Cl)ccc1NS(=O)(=O)c1ccc(N2CCOCC2)cc1
4,< 1000,O=C(c1cc[n+]([O-])cc1)c1cc(Cl)ccc1NS(=O)(=O)c1ccc(N2CCOCC2)cc1
5,< 1000,Cc1ncccc1C(=O)c1cc(Cl)ccc1NS(=O)(=O)c1ccc(C2(C)CCOCC2)cc1
6,< 1000,C[C@@H]1CN(c2ccc(S(=O)(=O)Nc3ccc(Cl)cc3C(=O)c3cc[n+]([O-])cc3)cc2)C[C@H](C)O1
7,< 1000,CC(C)(C)c1ccc(S(=O)(=O)Nc2ccc(Cl)cc2C(=O)c2ccc[n+]([O-])c2)cc1
8,< 1000,C[C@@H]1CN(c2ccc(S(=O)(=O)Nc3ccc(Cl)cc3C(=O)c3ccc[n+]([O-])c3)cc2)C[C@H](C)O1
9,< 1000,CC1(c2ccc(S(=O)(=O)Nc3ccc(Cl)cc3C(=O)c3ccncc3)cc2)OCCO1
10,< 1000,CC1(c2ccc(S(=O)(=O)Nc3ccc(Cl)cc3C(=O)c3cccnc3)cc2)CCOCC1
11,< 1000,CC(=O)c1ccc(S(=O)(=O)Nc2ccc(Cl)cc2C(=O)c2ccc(C)[n+]([O-])c2)cc1
12,< 1000,CC1(c2ccc(S(=O)(=O)Nc3ccc(Cl)cc3C(=O)c3ccc[n+]([O-])c3)cc2)CCOCC1
13,< 1000,O=C(c1ccncc1)c1cc(Cl)ccc1NS(=O)(=O)c1ccc(I)cc1
14,< 1000,Cc1ccc(C(=O)c2cc(Cl)ccc2NS(=O)(=O)c2ccc(S(C)(=O)=O)cc2)c[n+]1[O-]
15,< 1000,COc1ccc(S(=O)(=O)Nc2ccc(Cl)cc2C(=O)c2ccncc2)cc1
16,< 1000,CC1(c2ccc(S(=O)(=O)Nc3ccc(Cl)cc3C(=O)c3ccncc3)cc2)CCOCC1
17,< 1000,CC(C)(C)c1ccc(S(=O)(=O)Nc2ccc(Cl)cc2C(=O)c2cc[n+]([O-])c(Cl)c2)cc1
18,< 1000,O=C(c1ccncc1)c1cc(Cl)ccc1NS(=O)(=O)c1ccc(N2CCSCC2)cc1
19,< 1000,O=C(c1cc[n+]([O-])cc1)c1cc(Cl)ccc1NS(=O)(=O)c1ccc(N2CCOCC2)c(F)c1
20,< 1000,CC1(c2ccc(S(=O)(=O)Nc3ccc(Cl)cc3C(=O)c3ccccn3)cc2)CCOCC1
21,< 1000,O=C(c1ccncc1)c1cc(Cl)ccc1NS(=O)(=O)c1ccc(N2CCCCC2)cc1
22,< 1000,O=C(c1cccnc1)c1cc(Cl)ccc1NS(=O)(=O)c1ccc(N2CCOCC2)cc1
23,< 1000,Cc1ccc(C(=O)c2cc(Cl)ccc2NS(=O)(=O)c2ccc(C3(C)CCOCC3)cc2)c[n+]1[O-]
24,< 1000,O=C(c1ccncc1)c1cc(Cl)ccc1NS(=O)(=O)c1ccc(N2CCC2)cc1
25,< 1000,O=C(c1ccncc1)c1cc(Cl)ccc1NS(=O)(=O)c1ccc(N2CCCC2)cc1
26,< 1000,Cc1ccc(C(=O)c2cc(Cl)ccc2NS(=O)(=O)c2ccc(N3C[C@@H](C)O[C@@H](C)C3)cc2)c[n+]1[O-]
27,< 1000,O=C(c1ccc[n+]([O-])c1)c1cc(Cl)ccc1NS(=O)(=O)c1ccc(N2CCOCC2)cc1
28,< 1000,O=C(c1cc[n+]([O-])cc1)c1cc(Cl)ccc1NS(=O)(=O)c1ccc(-c2ccoc2)cc1
29,< 1000,CCc1ccc(S(=O)(=O)Nc2ccc(Cl)cc2C(=O)c2ccncc2)cc1
